Here are results for one compound from US20130121930A1, “Use of Glyceryl Trinitrate for Treating Hematomas” (priority 2010, published 2013).

SMILES strings stand for the structures.

In this assay the test system is hematomas. The assay is described as follows: Topically applied GTN on hematomas, general finding compared to untreated hematoma. The class given is in vivo. An excerpt:
Instead of darkening of the skin, the healing occurs with a green, followed by a yellow, coloration of the affected skin area.

Where [1] appears, read: 1.2 to 6 mg GTN on the day of injury, then daily 0.8 to 1.6 mg GTN, compared to an untreated hematoma.

With `O=[N+]([O-])OCC(CO[N+](=O)[O-])O[N+](=O)[O-]` [GTN, glyceryl trinitrate], where the note is “1.2 to 6 mg GTN on the day of injury, then daily 0.8 to 1.6 mg GTN”, the “typical darkening of the affected skin sites” value is “prevents the typical darkening”. Besides, under setting [1], the individual healing phases entry is recorded as “significantly shortened” and the “overall healing period for the treated hematomas” value was “reduced by one-half”. The healing of hematomas entry (topically applied) is “greatly accelerates”.
